Source: patent US20100267803A1, “Regulators Of Fat Metabolism As Anti-Cancer Targets” (The Research Foundation of State University Of New York, priority 2008, published 2010)

Columns and labels:
[1] = test system: NR1D1; assay: Immunoblot of NR1D1 protein after shRNA; format: cell-based, human; settings: after shRNA transfection
Excerpt: (§1) Cell viability—apoptosis assays. […] At least 30 fields were imaged per single experiment. […] Immunoblotting. […] PCR reaction was run using standard conditions.

[2] = test system: BMAL1 reporter; assay: BMAL1 luciferase reporter assay in BT474 cells; format: cell-based, human; settings: shRNA 48 h, vs empty vector
Procedure: (§2) FIG. 2 NR1D1 and PBP are necessary for survival of ERBB2-positive cells. (a) PBP and NR1D1 mRNA levels of BT474 cells transfected with luciferase (control), PBP or NR1D1 shRNAs for 48 h, analyzed by qRT-PCRs. (Error bars are s.d from 3 experiments; ***P<0.003, **P=0.01, *P=0.02). (b) BMAL1 luciferase reporter activity of BT474 cells transfected with either empty vector (control), or NR1D1 shRNA for 48 h.
FIG. 3 PPAR. inhibition impacts NR1D1 expression and ERBB2-positive cells viability. (a) Cell counts of BT474, MDA-MB-361, MCF-7 and HMEC cells treated with vehicle, 10 and 20 μM of the PPAR. antagonist GW9662 for 72 hrs. Results represented as % of control (vehicle). (Error bars are s.d from 3 individual experiments; *P>0.2, **P<0.05, ***P<0.002). (b) BT474 cells treated with vehicle or 20 μM of GW9662 for 48 h were immuno-stained for cleaved Caspase-3. (c) Quantification of Caspase-3 signal. […] (d) aP2 and NR1D1 mRNA levels of BT474 cells treated with vehicle (control) and 20 μM of GW9662 for 48 h, analyzed by qRT-PCRs. […]
Reporter assays. […] Cells were lysed 48 h post-transfection and firefly (reporter) and renilla luciferase activities were measured using the Dual-Luciferase Reporter Assay kit (Promega) on a BioTek Synergy HT reader. The ratio of Firefly to Renilla luciferase activity was calculated and presented as percentage of control.

[3] = test system: ME1 mRNA; assay: qRT-PCR of ME1 mRNA in BT474 cells; format: cell-based, human; settings: shRNA 48 h
Procedure: (§3) FIG. 5. (a) MDH1 and ME1 mRNA levels of BT474 cells treated with luciferase (control), PBP or NR1D1 shRNAs for 48 h, analyzed by qRT-PCRs. (Error bars are s.d from 3 experiments; **P<0.002 (b) BT474 and MCF-7 cells were transfected with luciferase (control) MDH1 and ME1 shRNAs (Error bars are s.d from 3 individual experiments; ***P=0.0003). (c) BT474 cells) assayed for cleaved Caspase-3 signal by immunofluorescence 48 h after transfection; cell nuclei were stained with Hoechst 33243. (d) Quantification of cleaved Caspase-3 signal from cells in (c). (Error bars are s.d from 3 individual experiments; ***P<0.005). (e) Enzymes involved in fatty acid synthesis and storage that are regulated by NR1D1 and PBP and their proposed contribution to energy production necessary for survival of ERBB2-positive breast cancer cells.
as §1

[4] = test system: MDH1 mRNA; assay: qRT-PCR of MDH1 mRNA in BT474 cells; format: cell-based, human; settings: shRNA 48 h
Procedure: as §3, §1

[5] = test system: PBP; settings: after shRNA transfection
Procedure: Immunoblotting. Cell extracts for western blots were obtained using RIPA buffer (1% Triton X-100, 40mM NaCl, 0.1% SDS, 10 mM Tris pH 8.0) supplemented with complete cocktail of proteinase inhibitors (Roche). For detection of phoshporylated epitopes, the PhosSTOP cocktail of phospatase inhibitors (Roche) was added in the lysis buffer. Protein extracts were separated by SDS-PAGE, transferred to Immobilon-P (Millipore) membranes and immunoblotted according to standard protocols. Blots were imaged using a FluorChem HD (Alpha Innotech) imaging system and images were analyzed by densitometry using the FluorChem 9900 software (Alpha Innotech). Antibodies used: anti-flag (M2; Stratagene), PBP (TRAP220, C-19; Santa Cruz), GAPDH (V-18; Santa Cruz Biotechnology), ERBB2 (clone 42; BD), phospho-ERBB2 (Tyr877, #2241; Cell Signaling Technology), phospho-ERBB2 (Tyr1221/1222, 6B12; Cell Signaling Technology), anti-rabbit IgG-HRP (sc-2204, Santa Cruz Biotechnology), anti-goat IgG-HRP (sc-2768, Santa Cruz Biotechnology), anti-mouse IgG-HRP (#31430; Pierce Biotechnology) qRT-PCR.

[6] = test system: PBP mRNA; assay: qRT-PCR of PBP mRNA in BT474 cells; format: cell-based, human; settings: shRNA 48 h
Procedure: as §2, §1

Substance | NR1D1 protein levels [1] | up-regulation of BMAL1 reporter [2] [fold] | ME1 message levels [3] | MDH1 message levels [4] | PBP protein levels [5] | decrease in mRNA levels of target (PBP) [6] [%]
NR1D1 shRNA: shRNA, mature sequence GGCATGGTGTTACTGTGTA (shRNA) | decreased protein levels | 2.5 | significantly decreased | significantly decreased |  | 
PBP shRNA: shRNA, mature sequence CCGAGTTCCTCTTATCCTA (shRNA) |  |  |  |  | decreased protein levels | > 60
